In patent US20190233884A1 (University of Southern California, priority 2016, published 2019):

Tested on: patients with refractory metastatic colorectal cancer (mCRC)
Assay: PFS, OS and disease control in the testing (validation) cohort of refractory mCRC patients receiving TAS-102 (n=129, Italy), by baseline characteristics, SNP genotype and toxicity
Format: in vivo, human
Details: for OS HR (95% CI)‡ / PFS HR (95% CI) ‡: multivariable; for Disease Control Rate: PD / Disease Control Rate: SD: patients, n (%); for Disease Control Rate PD / Disease Control Rate SD / Overall Survival Median, months (95% CI) / Progression-free Survival Median, months (95% CI) / Overall Survival HR (95% CI) multivariate / Overall Survival HR (95% CI) univariate / Progression-free Survival HR (95% CI) multivariate / Progression-free Survival HR (95% CI) univariate / OS / PFS: testing cohort
Method: All patients underwent the treatment in salvage-line setting. […]
Genomic DNA was extracted from peripheral whole blood in patients of all cohorts using the QIAmp Kit (Qiagen, Valencia, Calif., USA) according to the manufacturer's protocol (www.qiagen.com). The candidate SNPs were genotyped using PCR-based direct DNA sequence analysis by ABI 3100A Capillary Genetic Analyzer and Sequencing Scanner v1.0 (Applied Biosystems). Amplification of extracted DNA was carried out using both forward and reverse primers for each gene polymorphism as shown in Table 1. […] The investigators analyzing SNPs were blinded to the clinical data of the study patients.
The primary endpoint in this study was progression-free survival (PFS), and the secondary endpoints were overall survival (OS) and disease control rate (DCR). PFS was calculated from the date of starting treatment to the first observation of disease progression or death from any cause. If a patient had no disease progression or death, PFS was censored at the date of last follow up. OS was calculated from the date of starting treatment until the date of death from any cause or the date of the last follow-up, at which point OS was censored. The disease control rate (DCR) was defined as the proportion of patients who achieved a stable disease (SD) or […] according to RECISTv1.1. Chi-square test was used to examine the difference in baseline patient characteristics among the three cohorts. Allelic distribution of all SNPs by ethnicity for deviation from Hardy-Weinberg equilibrium and the allelic frequencies of SNPs were tested using the Chi-square tests with one degree of freedom. The associations between candidate SNPs and disease control, and toxicities were examined using contingency tables and Fisher's exact test. The associations of SNPs with PFS and OS were analysed using Kaplan-Meier curves and the log-rank test. Because the true mode of inheritance of candidate SNPs was not established yet, a codominant or dominant genetic model if appropriate was considered.
All patients underwent the treatment in salvage-line setting. […] In all patients, adverse events were graded according to the Common Terminology Criteria for Adverse Events, version 4.0. […]
Genomic DNA was extracted from peripheral whole blood in patients of all cohorts using the QIAmp Kit (Qiagen, Valencia, Calif., USA) according to the manufacturer's protocol (www.qiagen.com). The candidate SNPs were tested using PCR-based direct DNA sequence analysis by ABI 3100A Capillary Genetic Analyzer and Sequencing Scanner v1.0 (Applied Biosystems). […] The investigators analyzing SNPs were blinded to the clinical data.
The primary endpoint in this study was progression-free survival (PFS), and the secondary endpoints were overall survival (OS) and disease control rate (DCR).

[1] = ATR rs2227928 A/A vs G/G, univariate
[2] = ATR rs2227928 Any A vs G/G, univariate
[3] = ATR rs2227928 G/A vs G/G, univariate
[4] = Pin1 rs2233678 G/C and C/C grouped together
[5] = Pin1 rs2233678 G/C and C/C grouped vs G/G
[6] = Pin1 rs2233678 G/C and C/C grouped vs G/G, univariate
[7] = Validation cohort, Neutropenia grade <3
[8] = Validation cohort, Neutropenia grade ≥3 vs <3, univariate
[9] = hENT1 + OCT2/MATE1 classification: Fair
[10] = hENT1 + OCT2/MATE1 classification: Good or Excellent
[11] = hENT1 + OCT2/MATE1 classification: Poor

## Trifluridine/tipiracil [TAS-102]
ATR rs2227928 A/A
  PFS median, months (95% CI): 2.4 months
  Disease Control Rate: PD: 14 (56%)
  Disease Control Rate: SD: 11 (44%)
ATR rs2227928 A/A vs G/G
  OS HR (95% CI)‡: 1.32
  PFS HR (95% CI) ‡: 1.03
[1]
  OS HR (95% CI)†: 0.94
  PFS HR (95% CI) †: 0.79
ATR rs2227928 Any A
  OS median, months (95% CI): 5.5 months
  PFS median, months (95% CI): 2.0 months
  Disease Control Rate: PD: 64 (72%)
  Disease Control Rate: SD: 25 (28%)
ATR rs2227928 Any A vs G/G
  OS HR (95% CI)‡: 1.35
  PFS HR (95% CI) ‡: 1.33
[2]
  OS HR (95% CI)†: 1.12
  PFS HR (95% CI) †: 1.11
ATR rs2227928 G/A
  OS median, months (95% CI): 5.4 months
  PFS median, months (95% CI): 2.0 months
  Disease Control Rate: PD: 50 (78%)
  Disease Control Rate: SD: 14 (22%)
ATR rs2227928 G/A vs G/G
  OS HR (95% CI)‡: 1.36
  PFS HR (95% CI) ‡: 1.45
[3]
  OS HR (95% CI)†: 1.20
  PFS HR (95% CI) †: 1.26
ATR rs2227928 G/G
  PFS median, months (95% CI): 2.1 months
  Disease Control Rate: PD: 27 (69%)
  Disease Control Rate: SD: 12 (31%)
[4]
  OS median, months (95% CI): 5.4 months
  PFS median, months (95% CI): 2.0 months
  Disease Control Rate: PD: 26 (70%)
  Disease Control Rate: SD: 11 (30%)
[5]
  OS HR (95% CI)‡: 0.97
  PFS HR (95% CI) ‡: 1.18
[6]
  OS HR (95% CI)†: 0.91
  PFS HR (95% CI) †: 1.00
Pin1 rs2233678 G/G
  OS median, months (95% CI): 5.8 months
  PFS median, months (95% CI): 2.0 months
  Disease Control Rate: PD: 65 (71%)
  Disease Control Rate: SD: 26 (29%)
[7]
  OS median, months (95% CI): 3.7 (3.3, 5.1) months
  PFS median, months (95% CI): 1.9 (1.7, 1.9) months
Validation cohort, Neutropenia grade ≥3
  PFS median, months (95% CI): 2.3 (2.0, 3.7) months
[8]
  OS HR (95% CI): 0.21 (0.10, 0.44)
  PFS HR (95% CI): 0.50 (0.32, 0.77)
MATE1_OCT019 Good
  Disease Control Rate PD: 63 (70%)
  Disease Control Rate SD: 27 (30%)
  Overall Survival Median, months (95% CI): 5.4 (4.1, 9.0+) months
  Progression-free Survival Median, months (95% CI): 2.0 (1.9, 2.3) months
MATE1_OCT019 Good vs Poor
  Overall Survival HR (95% CI) multivariate: 1.12 (0.59, 2.10)
  Overall Survival HR (95% CI) univariate: 1.18 (0.64, 2.17)
  Progression-free Survival HR (95% CI) multivariate: 0.91 (0.59, 1.42)
  Progression-free Survival HR (95% CI) univariate: 0.94 (0.62, 1.43)
MATE1_OCT019 Poor
  Disease Control Rate PD: 28 (74%)
  Disease Control Rate SD: 10 (26%)
  Progression-free Survival Median, months (95% CI): 2.0 (1.8, 2.1) months
MATE1 rs2289659 A/A
  Disease Control Rate PD: 20 (74%)
  Disease Control Rate SD: 7 (26%)
  Progression-free Survival Median, months (95% CI): 2.0 (1.7, 2.3) months
MATE1 rs2289659 A/A vs G/G
  Overall Survival HR (95% CI) multivariate: 1.42 (0.61, 3.32)
  Overall Survival HR (95% CI) univariate: 1.13 (0.50, 2.58)
  Progression-free Survival HR (95% CI) multivariate: 1.11 (0.63, 1.96)
  Progression-free Survival HR (95% CI) univariate: 1.01 (0.58, 1.74)
MATE1 rs2289659 Any A
  Disease Control Rate PD: 64 (70%)
  Disease Control Rate SD: 27 (30%)
  Overall Survival Median, months (95% CI): 5.3 (3.9, 8.8+) months
  Progression-free Survival Median, months (95% CI): 2.0 (1.9, 2.1) months
MATE1 rs2289659 Any A vs G/G
  Overall Survival HR (95% CI) multivariate: 1.60 (0.85, 3.04)
  Overall Survival HR (95% CI) univariate: 1.42 (0.76, 2.64)
  Progression-free Survival HR (95% CI) multivariate: 1.14 (0.74, 1.75)
  Progression-free Survival HR (95% CI) univariate: 1.03 (0.68, 1.58)
MATE1 rs2289659 G/A
  Disease Control Rate PD: 44 (69%)
  Disease Control Rate SD: 20 (31%)
  Overall Survival Median, months (95% CI): 4.6 (3.7, 8.8+) months
  Progression-free Survival Median, months (95% CI): 2.0 (1.8, 2.3) months
MATE1 rs2289659 G/A vs G/G
  Overall Survival HR (95% CI) multivariate: 1.67 (0.56, 3.25)
  Overall Survival HR (95% CI) univariate: 1.55 (0.81, 2.96)
  Progression-free Survival HR (95% CI) multivariate: 1.15 (0.73, 1.53)
  Progression-free Survival HR (95% CI) univariate: 1.04 (0.66, 1.64)
MATE1 rs2289659 G/G
  Disease Control Rate PD: 27 (73%)
  Disease Control Rate SD: 10 (27%)
  Overall Survival Median, months (95% CI): 9.0 (4.4, 9.0+) months
  Progression-free Survival Median, months (95% CI): 1.9 (1.9, 2.4) months
OCT2 rs316019 C/A
  Disease Control Rate PD: 21 (68%)
  Disease Control Rate SD: 10 (32%)
  Overall Survival Median, months (95% CI): 4.6 (3.6, 7.1+) months
  Progression-free Survival Median, months (95% CI): 1.9 (1.7, 2.4) months
OCT2 rs316019 C/A vs C/C
  Overall Survival HR (95% CI) multivariate: 1.00 (0.53, 1.89)
  Overall Survival HR (95% CI) univariate: 1.19 (0.64, 2.19)
  Progression-free Survival HR (95% CI) multivariate: 1.28 (0.79, 2.07)
  Progression-free Survival HR (95% CI) univariate: 1.12 (0.72, 1.76)
OCT2 rs316019 C/C
  Disease Control Rate PD: 70 (72%)
  Disease Control Rate SD: 27 (28%)
  Overall Survival Median, months (95% CI): 5.5 (4.7, 9.0+) months
  Progression-free Survival Median, months (95% CI): 2.0 (1.9, 2.3) months
Adjusted for age group, liver metastasis, ECOG performance status, previous anti-EGFR, OCT2 rs316000 A/G vs A/A
  Overall Survival HR (95% CI) multivariate: 0.66 (0.36, 1.23)
Adjusted for age group, liver metastasis, ECOG performance status, previous anti-EGFR, OCT2 rs316000 Any G vs A/A
  Overall Survival HR (95% CI) multivariate: 0.66 (0.36, 1.21)
Adjusted for age group, liver metastasis, ECOG performance status, previous anti-EGFR, OCT2 rs316000 G/G vs A/A
  Overall Survival HR (95% CI) multivariate: 0.64 (0.08, 4.91)
Genotype vs A/A, OCT2 rs316000 A/G vs A/A
  Overall Survival HR (95% CI) univariate: 0.87 (0.48, 1.57)
Genotype vs A/A, OCT2 rs316000 Any G vs A/A
  Overall Survival HR (95% CI) univariate: 0.83 (0.46, 1.47)
Genotype vs A/A, OCT2 rs316000 G/G vs A/A
  Overall Survival HR (95% CI) univariate: 0.45 (0.06, 3.28)
[9]
  OS: 4.0 months
  PFS: 1.9 months
[10]
  OS: 9.0 months
  PFS: 2.1 months
[11]
  OS: 3.6 months
  PFS: 2.0 months
hENT1 rs750370 A/A
  Disease Control Rate PD: 36 (80%)
